Earlier results, collected in article PMC8287861 (Frontiers in Microbiology, 2021).
Values after ≈ are worked out from the molar mass of the structure shown. Like-named read-outs stand apart in the source and are kept apart here.

Tests used:
[1] = test system: KPC-producing strains of Klebsiella pneumoniae and blaKPC mutants; design: method as in Nelson et al., 2019; details: ref Nelson et al., 2019
PAM4827 OXA-1 = test system: PAM4827 OXA-1; design: method as in Lomovskaya et al. (2020b); details: PAM4827, OXA-1, class D; ref Lomovskaya et al. (2020b)

In the case of `CC(C)(O/N=C(\C(=O)N[C@@H]1C(=O)N2C(C(=O)[O-])=C(C[n+]3ccccc3)CS[C@H]12)c1csc(N)n1)C(=O)O` [Ceftazidime, ceftazidime], the MIC ([1]; KP1074, KPC-3, SHV-11, TEM-1/GD) is given as over 128 µg/mL, the MIC ([1]; KP1099, KPC-2, SHV-11, SHV-12, CTX-M-14/GD) is given as over 128 µg/mL and the MIC ([1]; KP1102, KPC-3, TEM-1, SHV-11/GD) is given as over 128 µg/mL. The MIC ([1]; KP1246, KPC-3, SHV-12, SHV-11/FL) was over 128 µg/mL, the MIC ([1]; KP1252, KPC-3, TEM-1, SHV-11/FL) was over 128 µg/mL and the MIC ([1]; KP1317, KPC-3, TEM-1, SHV-11/GD) was over 128 µg/mL. For the same molecule, the MIC ([1]; KP1500, KPC-3, TEM-1, SHV-11, CTX-M-15 OXA-1 OXA-9/IS at −48) was over 128 µg/mL, the MIC ([1]; KPM3191, KPC-3:: DDK duplication at aa#831 (KPC-29)) was over 128 µg/mL and the MIC ([1]; KPM3192, KPC-3:: D179Y (KPC-31)) was over 128 µg/mL. For the same molecule, the MIC ([1]; KPM3200, KPC-3::duplication of EAVI (aa#278)) was over 128 µg/mL, the MIC ([1]; KPM3205, KPC-3 ::duplication of KKDY (aa#273)) was over 128 µg/mL and the MIC ([1]; KPM3210, KPC-2::D179N) was over 128 µg/mL. For the same molecule, the MIC ([1]; KPM3212, deletion of ELNSAI at aa#497) was over 128 µg/mL, the MIC ([1]; KPM3213, KPC-2::D179Y (KPC-31), selected from KP1099) was over 128 µg/mL and the MIC ([1]; KPM3214, KPC-2::D179A) was over 128 µg/mL. The MIC ([1]; KPM3493, KPC-3::duplication of EL at aa#164 (KPC-25)) was over 128 µg/mL, the MIC ([1]; KPM3494, KPC-3::R167S) was over 128 µg/mL and the MIC ([1]; KPM3495, KPC-3::A175V) was over 128 µg/mL. For the same molecule, the MIC ([1]; KPM3511, KPC-3::P174Q) was over 128 µg/mL, the MIC ([1]; KPM3512, KPC-3:: P174L) was over 128 µg/mL and the MIC ([1]; KPM3517, KPC-3::D179Y (KPC-31)) was over 128 µg/mL. For the same molecule, the MIC ([1]; KPM3520, Both WT and mutant KPC-3::duplication of 8aa (aa#264–271)) was over 128 µg/mL, the MIC ([1]; KPM3523, Both WT and mutant KPC-3:: deletion of EL (aa#241–242)) was over 128 µg/mL and the MIC ([1]; KPM3546, KPC-3::R164H) was over 128 µg/mL.
For `CCN1CCN(C(=O)N[C@@H](C(=O)N[C@@H]2C(=O)N3[C@@H]2SC(C)(C)[C@@H]3C(=O)O)c2ccccc2)C(=O)C1=O` [Piperacillin, piperacillin], the MIC (PAM4827 OXA-1) is given as 4 µg/mL (≈ 7.73 µM).
